Data reported in patent US8519110B2, “mRNA cap analogs” (Board of Supervisors of Louisiana State University And …, priority 2008, dated 2013).
Where two headings read alike, the source gives them in different places.

Experiments:
[1] = biological target: cap-dependent translation of luciferase mRNA in reticulocyte lysate; assay: Inhibition of cap-dependent translation in vitro by free cap analogs; assay type: biochemical, rabbit
Method: In vitro translation reactions were performed in 12.5 μl for 60 min at 30° C. under conditions favorable for cap-dependent translation. In some cases, the reaction mixture was incubated for 60 min at 30° C. prior to adding the dinucleotide cap analog (inhibitor) and m2^7,3′-OGppG-capped luciferase mRNA to start translation. In other cases, to analyze biological stability, the cap analog was incubated in the translation mixture for 60 min at 30° C. prior to adding the luciferase mRNA to start translation. A typical reaction mixture contained 56% reticulocyte lysate, the 20 “standard” amino acids (0.01 mM each), MgCl2 (1.2 mM), potassium acetate (170 mM), RiboLock Ribonuclease Inhibitor (0.32 U/μl), cap analog solution ( 1/10 of total reaction volume), and m2^7,3′-OGpppG-capped luciferase RNA. […] Reactions were performed with cap analog concentrations ranging from 0.12 to 100 μM. Luciferase activity was measured in a luminometer. […] The program OriginPro8 (OriginLab) was used for curve fitting with the equation qLUC=Z/(1+I/IC50)+N, where qLUC is the activity of luciferase synthesized in the presence of cap analog, Z is the activity of luciferase synthesized in the absence of cap analog, N is the activity of luciferase synthesized in a cap-independent manner, and I is the cap analog concentration.
Two type of experiments were carried out. In one set of experiments (condition A), a cap analog was added to the translation system together with luciferase mRNA. In the other set of experiments (condition B), the cap analog was incubated in the translation system for 60 min before addition of mRNA. […] There was a correlation between the resistance to hydrolysis by DcpS and the stability of analogs in the translation system.

[2] = system: rabbit reticulocyte lysate system; assay: In vitro translation efficiency of capped luciferase mRNA with 31-base poly(A) tail, method II transcripts; assay type: biochemical; details: for In vitro translational efficiency (method II): Table 3, relative to m^7GpppG-capped mRNA = 1.0; for Translation efficiency in comparison to m^7GpppG-LUC-(A)31 mRNA, Experiment No. 1: experiment 1; for Translation efficiency in comparison to m^7GpppG-LUC-(A)31 mRNA, Experiment No. 2: experiment 2; for Translation efficiency in comparison to m^7GpppG-LUC-(A)31 mRNA, Experiment No. 3: experiment 3; for Translation efficiency in comparison to m^7GpppG-LUC-(A)31 mRNA, Experiment No. 4: experiment 4; for Translation efficiency in comparison to m^7GpppG-LUC-(A)31 mRNA, Mean: mean of experiments; for Translation efficiency in comparison to m^7GpppG-LUC-(A)31 mRNA, Experiment No. 5: experiment 5
In short: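 Cap-analog-primed SP6 transcripts (β-globin 5′-UTR, firefly luciferase, 31-A tail; 0.5 mM cap analog, 0.1 mM GTP) were translated in nuclease-treated rabbit reticulocyte lysate for 60 min at 30° C at 0.25–4 μg/ml mRNA. Efficiency is the slope of luciferase activity versus mRNA concentration, relative to m^7GpppG-capped mRNA (1.0).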

eIF4E = eIF4E (Mus musculus, UniProt P63073); assay: Binding affinity of cap analogs to eIF4E by fluorescence titration; details: equilibrium association constant; for Cap analog-eIF4E affinity (KAS): Table 3; for Cap analog/eIF4E affinity (KAS): 20 °C, pH 7.2, ionic strength 150 mM
Chain of eIF4E (P63073 28-217 limits assumed): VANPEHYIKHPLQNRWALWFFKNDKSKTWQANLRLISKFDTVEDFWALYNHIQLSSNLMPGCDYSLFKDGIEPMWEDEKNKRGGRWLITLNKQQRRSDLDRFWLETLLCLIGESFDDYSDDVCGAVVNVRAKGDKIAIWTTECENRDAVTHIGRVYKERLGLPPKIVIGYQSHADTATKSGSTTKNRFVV
In short: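 Cap analogue was titrated into 0.1 or 0.2 μM eIF4E at 20.0° C, in 50 mM HEPES/KOH pH 7.2 with 0.5 mM EDTA and 1 mM DTT, ionic strength 150 mM (KCl). Fluorescence quenching was read at excitation 280 or 295 nm and emission 337 nm, corrected for dilution and inner filter. Kas is a weighted average of 3–10 titration fits.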

[3] = Table 3, cap analog added together with mRNA, read-out: Inhibition of in vitro translation (IC50), condition A
[4] = Table 3, cap analog preincubated 60 min in lysate, read-out: Inhibition of in vitro translation (IC50), condition B
[5] = cap analog added together with luciferase mRNA, read-out: Inhibition of in vitro translation (IC50), condition A
[6] = cap analog incubated in translation system 60 min before addition of mRNA, read-out: Inhibition of in vitro translation (IC50), condition B

IC50 [1, 3] [µM]	IC50 [1, 4] [µM]	In vitro translational efficiency (method II) [2]	Translation efficiency in comparison to m^7GpppG-LUC-(A)31 mRNA, Experiment No. 1 [2]	Translation efficiency in comparison to m^7GpppG-LUC-(A)31 mRNA, Experiment No. 2 [2]	Translation efficiency in comparison to m^7GpppG-LUC-(A)31 mRNA, Experiment No. 3 [2]	Translation efficiency in comparison to m^7GpppG-LUC-(A)31 mRNA, Experiment No. 4 [2]	Translation efficiency in comparison to m^7GpppG-LUC-(A)31 mRNA, Mean [2]	Cap analog-eIF4E affinity (KAS) (eIF4E) [μM^−1]	IC50 [1, 5] [µM]	IC50 [1, 6] [µM]	Translation efficiency in comparison to m^7GpppG-LUC-(A)31 mRNA, Experiment No. 5 [2]	Cap analog/eIF4E affinity (KAS) (eIF4E) [μM^−1]	Compound
8.4 ± 1.4	14.7 ± 1.6	2.24 ± 0.28	2.05	2.09	2.16	2.65	2.24	38.5 ± 0.7					CO[C@@H]1[C@H](O)[C@@H](COP(=O)(O)OP(O)(=[Se])OP(=O)(O)OC[C@H]2O[C@@H](n3cnc4c(=O)[nH]c(N)nc43)[C@H](O)[C@@H]2O)O[C@H]1n1c[n+](C)c2c(=O)[nH]c(N)nc21 (single isomer, unassigned) [m2^7,2′-OGppSepG (D1), m2^7,2′-OGppSepG]
3.9 ± 0.5	11.4 ± 7.2	2.31 ± 0.22	2.53	2.31	2.09		2.31	19.0 ± 0.5					CO[C@@H]1[C@H](O)[C@@H](COP(=O)(O)OP(O)(=[Se])OP(=O)(O)OC[C@H]2O[C@@H](n3cnc4c(=O)[nH]c(N)nc43)[C@H](O)[C@@H]2O)O[C@H]1n1c[n+](C)c2c(=O)[nH]c(N)nc21 (single isomer, unassigned) [m2^7,2′-OGppSepG (D2), m2^7,2′-OGppSepG]
8.3 ± 0.2	35.1 ± 10.8	1.00	1.00	1.00	1.00	1.00	1.00	9.4 ± 0.4	8.3 ± 0.2	35.1 ± 10.8	1.00	9.4 ± 0.4	Cn1c[n+]([C@@H]2O[C@H](COP(=O)(O)OP(=O)(O)OP(=O)(O)OC[C@H]3O[C@@H](n4cnc5c(=O)[nH]c(N)nc54)[C@H](O)[C@@H]3O)[C@@H](O)[C@H]2O)c2nc(N)[nH]c(=O)c21 [m^7GpppG, m^7G(5′)ppp(5′)G, reference compound]
							3.56		3 ± 0.1	3 ± 0.2	3.56	11.1 ± 0.2	m^7GppBH3pm^7G
